The record followed here is patent publication US11834424B2, “Compounds useful as chaperone-mediated autophagy modulators” (ALBERT EINSTEIN COLLEGE OF MEDICINE, priority 2018, dated 2023).

In data set [1] the test system is chaperone-mediated autophagy (CMA) in NIH 3T3 fibroblasts. The experiment in a line: Photoswitchable KFERQ-Dendra CMA reporter assay in NIH 3T3 fibroblasts. In kind it is cell-based. How it is done:
The photoactivatable CMA reporter assay was constructed by inserting a sequence of 21 amino acid of Ribonuclease A bearing the CMA-targeting motif in the N-terminus multicloning site of the photoactivatable protein mCherryl or the photoswitchable protein Dendra 2.
NIH 3T3 fibroblasts were stably transduced with a photoconvertible CMA reporter, KFERQ-Dendra. were photoswitched by exposure to a […] (constant current) LED (Norlux, 405 nm) for 10 minutes and at the desired times fixed in 3% formaldehyde. Test cells were exposed to the indicated concentrations of the compounds for 12 hours (FIG. 3A) or 24 hours (FIG. 3B). Cells were imaged using high content microscopy (Operetta, Perkin Elmer) or by capturing images with an Axiovert 200 fluorescence microscope (Zeiss) with apotome and equipped with a 63/1.4 NA oil objective lens and red (ex. 570/30 nm, em. 615/30 nm), cyan (ex. 365/50 nm and em. 530/45 nm) and green (ex. 475/40 nm and em. 535/45 nm) filter sets (Chroma). Images were acquired with a high-resolution CCD camera after optical sectioning through the apotome. CMA activity measured as the average number of fluorescent puncta (CMA active lysosomes) per cell. Values are expressed relative to values in untreated cells that were assigned an arbitrary value of 1 and are mean of >2,500 cells counted per condition. The S.D. in all instances was <0.01% mean value. Table 2 provides a comparison of compounds CA39.1 and its comparative example CA39 and CA77.01 and its comparative example CA77.

The nature of the next data set: in vitro. The following applies: for CLint(mic) / Remaining (T = 60 min): 3 μM; for Remaining (T = 60 min): 1 h; for CLint scaled at 3 μM: CLint(liver). How it is done: Microsome stability was determined in human, rat, and mouse, liver microsomes. Compound at 3 μM final concentration along with 0.5 mg/mL microsome protein and 1 mM NADPH was incubated for 0, 5, 15, 30 and 60 min. As a negative control, test compound was incubated with microsomes in the absence of NADPH. Samples were quenched with methanol and centrifuged for 25 min at 2500 rpm to precipitate proteins. Supernatants were analyzed (N=3) by LC-MS/MS. The In peak area ratio (compound peak area/internal standard peak area) was plotted against time and the gradient of the line determined the elimination rate constant [k=(−1)(slope)].
R^2 is the correlation coefficient of the linear regression for the determination of kinetic constant. T1/2 is the half life and CLint (mic) is the intrinsic clearance. CLint(liver)=CLint (mic)*mg microsomal protein/g liver weight*g liver weight/kg body weight. Liver weight/kg body weight is 20 g/kg for human.

Data set [2] in a line: Pharmacokinetics (plasma and brain levels) in ICR (CD-1) mice. To be noted: ICR (CD-1) mice. The data set is classed as in vivo. How it is done: ICR (CD-1) male mice were fasted at least three horns and water was available ad libitum before the study. Animals were housed in a controlled environment, target conditions: temperature 18 to 29° C., relative humidity 30 to 70%. Temperature and relative humidity was monitored daily. An electronic time controlled lighting system was used to provide a 12 h light/12 h dark cycle. 3 mice for each indicated time point. ICR (CD-1) mice were administered CA77 at 1 mg/kg i.v. and 30 mg/kg p.o. or CA77.1 at 1 mg/kg i.v. (FIG. 2A) and 10 mg/kg p.o. (FIG. 2B). Three (3) mice were included in each dosage and time group. Mice were sacrificed and plasma and brains were obtained at 0.083, 0.25, 0.50, 1.0, 2.0, 4.0, 8.0, and 24.0 hours after administration and drug concentration determined using LC-MS/MS. Brains were removed, homogenized with a tissue homogenizer in cold 5% w/v BSA in phosphate buffer saline (PBS). A 100 microliter aliquots of brain samples were dispensed in to glass culture tubes and mixed with ethyl acetate (800 μl), vortexed, and centrifuged. The organic layer was transferred to a fresh culture tube, dried under nitrogen, and reconstituted in mobile phase for quantitation. Pharmacokinetic parameters were determined by standard methods using Phoenix WinNonlin 6.3 software.
Tables 3A and 3B provide the concentrations of CA77 in ICR (CD-1) mouse plasma (3A) and mouse brain (3B) following i.v. administration of 1 mg/kg CA77. Table 3C provides the brain/plasma ratio of CA77 following i.v. administration of 1 mg/kg CA77. Shaded cells indicate data not included in statistics due to aberrant value. BLQ=Below Limit of Quantitation.
Tables 5A and 5B provide the concentrations of CA77.1 in ICR (CD-1) mouse plasma (5A) and mouse brain (5B) following i.v. administration of 1 mg/kg CA77.1. Table 5C provides the brain/plasma ratio of CA77.1 following i.v. administration of 1 mg/kg CA77.1. The plasma and brain pharmacokinetic parameters for CA77.1 are provided in Table 6. *—cells contain data not present in the statistics.

Setting [3] is: T1/2, human microsomes, 3 μM compound, 0.5 mg/mL protein, 1 mM NADPH.

Some results are limits rather than exact numbers.

For `Clc1ccc2c(c1)OCC(c1ccc(-c3ccccc3)cc1)=N2` [CA39, 3-([1,1′-biphenyl]-4-yl)-7-chloro-2H-benzo[b][1,4]oxazine, reference compound], in data set [1] (Time 5), the “CMA activity (fluorescent puncta per cell, relative to untreated cells = 1)” value is on record as 2.457. Moreover, the “CMA activity (fluorescent puncta per cell, relative to untreated cells = 1)” value in data set [1] (Time 10) was 2.619. The “CMA activity (fluorescent puncta per cell, relative to untreated cells = 1)” value in data set [1] (Time 20) is 3.587. In data set [1] (Time 30), the “CMA activity (fluorescent puncta per cell, relative to untreated cells = 1)” value is 4.374. Further, in “in vitro” (human, microsomes), the half-life (in general, the time needed for the level to fall by half in the phase considered) at 3 μM was 37.9 min; the CLint(mic) was found to be 36.6 µL/min/mg; the “Remaining (T = 60 min)” value is on record as 30.1%; the CLint scaled (as a rule, the capacity of the preparation to metabolise the compound, expressed as a volume cleared per time) at 3 μM is 32.9 mL/min/kg.

Turning to `Clc1ccc2nc(-c3ccc(-c4ccccc4)cc3)cnc2c1` [CA39.1, 2-([1,1′-biphenyl]-4-yl)-6-chloroquinoxaline], the “CMA activity (fluorescent puncta per cell, relative to untreated cells = 1)” value in data set [1] (Time 5) is listed as 2.107; in data set [1] (Time 10), 2.233; in data set [1] (Time 20) it was 2.605; in data set [1] (Time 30), 2.925. For the same compound, the half-life at 3 μM in “in vitro” (human, microsomes) was over 145 min. Moreover, the CLint(mic) in “in vitro” (human, microsomes) is under 9.6 µL/min/mg. Besides, the “Remaining (T = 60 min)” value in “in vitro” (human, microsomes) turned out to be 96.0%. In “in vitro” (human, microsomes), this compound had a CLint scaled at 3 μM of under 8.6 mL/min/kg.

Regarding `O=S(=O)(Nc1ccc(-c2cnc3cc(Cl)ccc3n2)cc1)C(F)(F)F` [CA77, reference compound], in data set [2] (i.v. 1 mg/kg), the AUCINF_obs came to 35.8 ng·h/mL; the AUClast was found to be 35.3 ng·h/mL; the CL_obs was 465 mL/min/kg; the Cmax (in general, the peak of the concentration-time curve) was 36.2 ng/mL. Besides, in data set [2] (i.v. 1 mg/kg), the MRTINF_obs was 57.1 min; the T1/2 came out at 38.1 min; the Tmax (as a rule, the time at which the peak concentration occurs) was determined as 4.98 min; the VSS_obs amounted to 26.548 L/kg. This compound also yielded a F % in data set [2] (p.o. 30 mg/kg vs i.v. 1 mg/kg) of 124%. In data set [2] (p.o. 30 mg/kg), this compound gave an AUCINF_obs of 1458 ng·h/mL, an AUClast of 1317 ng·h/mL, a CL_obs of 343 mL/min/kg and a Cmax of 278 ng/mL. For the same compound, in data set [2] (p.o. 30 mg/kg), the MRTINF_obs worked out at 238 min, the T1/2 came to 131 min and the time to peak (Tmax) was 120 min.

For the compound `O=C(O)Cc1ccccc1Nc1c(Cl)cccc1Cl` [Diclofenac], the half-life at 3 μM in the data set “in vitro” (setting [3]) came out at 15.7 min. Moreover, in “in vitro” (human, microsomes), the half-life at 3 μM came out at 105 min and the CLint scaled at 3 μM turned out to be 94.4 mL/min/kg.

As to `C[C@]12CC[C@H]3[C@@H](CCC4=CC(=O)CC[C@@]43C)[C@@H]1CC[C@@H]2O` [Testosterone], the half-life at 3 μM in the data set “in vitro” (setting [3]) was found to be 57.5 min.
